{"source": "patent US5583155A", "about": "“6-amino-1,2-benzopyrones useful for treatment of viral diseases” (Octamer, Inc., priority 1994, dated 1996)", "key": {"CMV": {"system": "CMV", "assay": "microbe, parasite or virus in culture", "format": "cell-based, human cytomegalovirus (patient isolate)"}, "Adenovirus": {"system": "Adenovirus", "assay": "microbe, parasite or virus in culture", "format": "cell-based, Adenovirus (patient isolate)"}, "HIV in U937 cells": {"system": "HIV in U937 cells", "assay": "HIV growth in U937 cells without activator (syncytium-forming assay)", "format": "cell-based, HIV-1", "description": "In order to assess a possible direct effect of the drug on the growth of HIV, experiments shown in FIG. 3 were reproduced, except that conditions of virus titration (by SFU) were refined, to detect relatively low virus titers.\nTransfection was 24 hours before HIV infection."}, "HIV in AA-2 cells": {"system": "HIV in AA-2 cells", "assay": "HIV propagation in AA-2 cells (cytopathogenicity)", "format": "cell-based", "conditions": "for inhibition at 3000 µM: varying HIV dilutions, read-out: HIV growth inhibition in AA-2 cells", "description": "(§1) Whereas the activation of latent HIV by various DNAs and its prevention by 6-ABP were shown above, the following experiments examine the effects of 6-ABP on the direct propagation of highly virulent HIV strain obtained from NIH in Molt III cells, using cell supernatant as source of virus on AA-2 and MT2 cells in culture. More than 60 tests were performed varying virus titers, time of exposure, and exposure to 6-ABP.\nThe effect of 1 and 3 mM 6-ABP on the rate of HIV propagation is assayed by cytopathogenicity at a fixed HIV dilution 1:1600.\nFIG. 7 illustrates the effect of 3 mM 6-ABP on HIV growth inhibition in AA-2 cells after 3 days and 6 days. The culture was exposed to 3 mM of the drug at varying HIV dilutions. 6-ABP concentration acting for 3 or 6 consecutive days on AA-2 cells is depicted as a function of virus concentration (given as HIV dilution on the abscissa)."}, "HIV in MT-2 cells": {"system": "HIV in MT-2 cells", "assay": "HIV syncytia formation in MT-2 cells", "format": "cell-based", "conditions": "3 mM", "description": "as §1\nEquivalent results, shown in FIG. 9, were obtained with MT-2 cells. In FIG. 9, the inhibition of syncytia formation was quantitatively assayed. […] At very high HIV titre, at 1:100 dilution the untreated syncitia formation was 150 times higher than in treated culture."}, "AA-2 cells": {"system": "AA-2 cells", "assay": "AA-2 cell count and viability", "format": "cell-based", "conditions": "3 mM", "description": "The effects of 6-ABP treatment of AA-2 cells was directly analyzed by cell count and viability tests including cloning efficiency and trypan blue uptake. The AA2 cell culture having initial cell count per well 0.5×10^5 was submitted to treatment with 3 mM of 6-ABP and compared to untreated (Control) cell culture. The cells were counted 4 days after the treatment with 6-ABP."}, "[1]": {"system": "HIV in human lymphoblasts", "assay": "HIV in human lymphoblasts (reverse transcriptase assay)", "format": "cell-based", "conditions": "18 hours exposure, FIG. 11E", "description": "In FIGS. 11A through 11E, normal lymphoblasts stimulated with PHA are infected with HIV and at the same time are submitted to various concentrations from 0-10 mM 6-ABP. After the short exposure of 18 hours, both HIV and 6-ABP are removed, FIGS. 11A, 11C, 11E and the 6-ABP in the same concentrations is readded up to 4 days to cultures shown in FIGS. 11B and 11D. At 4 days, proliferation index measured by ^3 H-thymidine incorporation is determined in FIGS. 11A and 11B. […] In FIGS. 11C and […], the viral synthesis or inhibition is measured by p 24 assay.\nHuman peripheral blood mononuclear cells from a noninfected, normal individual were stimulated for 2 to 3 days with phytohemagglutinin in tissue culture, washed, aliquoted and cultured overnight with 200 TCID or 50 TCID of HIV and were untreated or treated with 0.01, 0.1, 1.0 or 10.0 mM 6-ABP. An additional control was incubated with 10 mM 6-ABP without presence of HIV. After the overnight incubation, […]. The cells were placed in culture in medium containing IL-2, but in the absence of additional 6-ABP, and monitored at 6 days and 12 days for the production of HIV-p24 core antigen, or for measurements of particulate reverse transcriptase. […]\nHIV p24 antigen was measured by ELISA, with a cutoff of 5 pgm/ml. […]"}, "established cell lines": {"system": "established cell lines", "assay": "Intracellular drug concentration / transport in twelve cell lines", "format": "in vitro ADME", "description": "It is of importance to determine both intracellular drug concentrations and mechanisms of drug transport. Twelve different cell types were incubated with varying concentrations of the drug for varying periods and intracellular drug concentration assayed with the aid of [5^3 H] labeled 6-ABP. […] Thus, there is a significant transport regulation through the cell membrane."}, "[2]": {"assay": "Aqueous solubility and solution stability", "format": "physicochemical"}, "HIV-LTR": {"system": "HIV-LTR", "assay": "cells", "experimental": "All chimeric CAT constructions were prepared in pCATB' containing the CAT structural gene without eukaryotic promoter sequence.\n(§2) DNA transfection was performed with DEAE dextran. Briefly, U937 cells (5×10^6) were exposed for 60 min. at 37° C. to a mixture of DEAE Dextran (1.05 ug/ml) and DNA in STBS buffer (25 mM Tris HCl, having pH 7.5, 137 mM NaCl, 0.5 MgCl2, 0.7 mM CaCl2 and 5 mM KCl and 0.6 mM Na2 HPO4) in 15 ml snap cap 6×35 mm polyethylene dishes from Costar, Cambridge, Mass., at 5×10^6 cells per well. Routinely, transfection mixtures contained 1.0 ug of target supercoiled plasmid and 0.1 ug DNA to equalize nucleic acid concentration effects. Transfected cells were harvested 40 to 44 hr post transfection in CAT harvest buffer (40 mM Tris, having pH 7.4 150 mM NaCl, 1 mM EDTA) and stored at -20° C. until assayed.\nRoutine assay conditions employed 0.2 uCi of [^14 C]-chloramphenicol substrate and an incubation time of 60 min. For quantitative estimates of CAT activity and fold activation, the appropriate sections were cut from the thin-layer chromatography scintillation fluid added and the radioactivity was counted in a scintillation counter. Quantitative comparisons were made by measuring the amounts of chloramphenicol-acetate product with enzyme concentrations and time. pSV CAT was used as a positive control, and the parent (pCATB') was used as a negative control. […]"}, "ADPRT": {"system": "ADPRT", "conditions": "FEBS Lett., 212:73 (1987); cited from earlier work"}, "[3]": {"conditions": "Yakugaku Zasshi, cited from earlier work"}, "[4]": {"system": "HIV (activated by HSV IE-110) in U937 cells", "assay": "HIV growth activated by HSV IE110 in U937 cells (syncytium-forming assay)", "experimental": "For the purpose of determining the ability of 6-ABP to inhibit HIV growth activation, the duplicate cells cultures were used. In experiments 1 and 2, U937 cells were transfected with HSV IE-110 gene and, CMV IE gene and infected HIV. […] In experiment 3, U937 cells transfected with HSV IE-110 and infected with HIV were treated with 3 mM of 6-ABP.\nIn all experiments shown in FIG. 3 and 4, the cells were exposed to 3 mM drug for 24 hrs.\nas §2\nIn one series of experiments, the effect of HSV IE110 and CMV IE2 gene expression on HIV replication using the syncytium assay formation on MT2 cells that defines HIV growth was examined. The ability of 6-ABP to inhibit HIV growth activation was studied in duplicate cultures. U937 cells were transfected with HSV IE110 CMV IE genes or mock transfected with pBR322 plasmid and duplicate cells were pretreated with HIV. Virus (HIV) growth was assayed at various times thereafter. HIV titers are expressed as syncytia forming units/ml.\nTransfection was 24 hours before HIV infection. Sampling was done at days 3, 5, 6, and 8 post infection with HIV. 6-ABP treatment was 24 hours prior to transfection in order to allow intercellular 6-ABP concentration to equilibrate with external drug concentration. The timing chosen and drug dosage relate to drug penetration."}, "[5]": {"conditions": "1 mM 6-ABP, 24 hours before infection"}}, "note": "Entries after “also recorded” stand apart in the source; their conditions may differ. Where two headings read alike, the source gives them in different places."}
{"compound": "Nc1ccc2oc(=O)ccc2c1", "note": "[6-ABP, 6-amino-1,2-benzopyrone]", "values": [{"measurement": "Virus Titer +6-ABP (CMV)", "setting": "CMV; [5]", "value": "1 × 10^3 TCID50"}, {"measurement": "effect on CMV growth", "setting": "CMV; 6-ABP treatment", "value": "effectively inhibits CMV growth"}, {"measurement": "inhibition at 1000 µM", "setting": "CMV; Human betaherpesvirus 5, 1 mM 6-ABP, 24 hours before infection", "value": 90, "unit": "%"}, {"measurement": "Virus Titer +6-ABP (Adenovirus)", "setting": "Adenovirus; [5]", "value": "1 × 10^2 TCID50"}, {"measurement": "effect on Adenovirus growth", "setting": "Adenovirus; 6-ABP treatment", "value": "no effect"}, {"measurement": "inhibition at 1000 µM", "setting": "Adenovirus; unidentified adenovirus, 1 mM 6-ABP, 24 hours before infection", "value": 0, "unit": "%"}, {"measurement": "effect on HIV growth without activator", "setting": "HIV in U937 cells; 3 mM, FIGS. 3 and 4", "value": "completely inhibit any viral growth; also recorded: significant effect on HIV growth"}, {"measurement": "effect on HIV growth in absence of activating HSV gene", "setting": "HIV in U937 cells; Table 2 experiment", "value": "significant reduction in HIV growth"}, {"measurement": "HIV growth, U937 + 6-ABP", "setting": "HIV in U937 cells; day 3, no activator", "value": 13, "unit": "SFU/ml"}, {"measurement": "HIV growth, U937 + 6-ABP", "setting": "HIV in U937 cells; day 5, no activator", "value": 10, "unit": "SFU/ml"}, {"measurement": "HIV growth, U937 + 6-ABP", "setting": "HIV in U937 cells; day 6, no activator", "value": 10, "unit": "SFU/ml"}, {"measurement": "HIV growth, U937 + 6-ABP", "setting": "HIV in U937 cells; day 8, no activator", "value": 10, "unit": "SFU/ml"}, {"measurement": "HIV propagation in AA-2 cells", "setting": "HIV in AA-2 cells; 1 mM, HIV dilution 1:1600", "value": "able to suppress the HIV propagation only slightly"}, {"measurement": "HIV replication, AA-2 cells", "setting": "HIV in AA-2 cells; 3 mM, Example 5", "value": "complete abrogation of HIV replication"}, {"measurement": "HIV propagation in AA-2 cells", "setting": "HIV in AA-2 cells; 3 mM, day 6, HIV dilution 1:1600", "value": "completely eliminates HIV propagation"}, {"measurement": "inhibition at 3000 µM", "setting": "HIV in AA-2 cells; Human immunodeficiency virus 1, 72 h, 3 mM, 3 days", "value": "70 to 100", "unit": "%"}, {"measurement": "inhibition at 3000 µM", "setting": "HIV in AA-2 cells; Human immunodeficiency virus 1, 144 h, 3 mM, 6 days", "value": "25 to 100", "unit": "%"}, {"measurement": "HIV production / syncytia formation in MT-2 cells", "setting": "HIV in MT-2 cells", "value": "nearly completely suppressed HIV production"}, {"measurement": "untreated syncytia formation relative to treated culture", "setting": "HIV in MT-2 cells; HIV titre 1:100 dilution", "value": 150, "unit": "times"}, {"measurement": "cell proliferation", "setting": "AA-2 cells; AA-2 cells", "value": "inhibitory effect on cell proliferation"}, {"measurement": "Viability test / cellular toxicity", "setting": "AA-2 cells; AA-2 cells, cloning efficiency and trypan blue uptake", "value": "no evidence of toxic effects; also recorded: does not coincide with any detectable cellular toxicity"}, {"measurement": "Cell Count After 4 days", "setting": "AA-2 cells; initial count per well 0.5 × 10^5, control 1.5 × 10^5", "value": "0.7 × 10^5 (± 35%)"}, {"measurement": "virus inhibition, reverse transcriptase assay", "setting": "[1]", "value": "virus inhibition"}, {"measurement": "concentration of intracellular drug", "setting": "established cell lines; 1 mM extracellular administration, depending on cell types", "value": "65 to 200", "unit": "µM"}, {"measurement": "intracellular plateau, % of drug concentration applied extracellularly", "setting": "established cell lines; 12 established cell lines", "value": "10-20%"}, {"measurement": "time to plateau of 6-ABP transport", "setting": "established cell lines; 12 established cell lines", "value": "18 to 24", "unit": "h"}, {"measurement": "penetration of mammalian cells", "setting": "established cell lines; physiological pH 7.2-7.4", "value": "to a limited degree"}, {"measurement": "solution stability", "setting": "[2]; 10-12 mM solution, pH 7.2-7.9, room temperature, in the dark", "value": "stable for months at room temperature"}, {"measurement": "solubility", "setting": "[2]; aqueous media, pH 7.2-7.9", "value": "10 to 12", "unit": "mM"}, {"measurement": "degraded", "setting": "[2]; aqueous solution, 10-12 mM solution, months at room temperature, in the dark, read-out: decomposition of solution", "value": "< 0.1", "unit": "%"}, {"measurement": "fold induction at 5000 µM", "setting": "HIV-LTR; Human immunodeficiency virus 1, U-937, read-out: Fold Activation, HSV-IE-110 + 6-ABP, 5 mM 6-ABP, HSV-IE-110", "value": 20}, {"measurement": "fold induction at 2000 µM", "setting": "HIV-LTR; Human immunodeficiency virus 1, U-937, read-out: HIV-LTR-CAT activation by IE-110 after treatment, 2 mM 6-ABP, FIG. 5, 344-fold activation without drug", "value": "0.4 to 0.9"}, {"measurement": "binding to ADPRT", "setting": "ADPRT", "value": "specifically binding to ADPRT at the same site that also binds catalytically effective DNA termini"}, {"measurement": "hypothermal effect", "setting": "[3]; 78:491 (1958)", "value": "6-amino group decreased the hypothermal effect"}, {"measurement": "antipyretic, hypnotic, hypotensive and adrenolytic action", "setting": "[3]; 83:1124 (1963)", "value": "Some antipyretic, hypnotic, hypotensive and adrenolytic action"}, {"measurement": "effect on activation by HSV IE110", "setting": "[4]; 1 mM", "value": "virtually abrogates activation by HSV IE110"}, {"measurement": "HIV growth, U937 + HSV IE110 + 6-ABP", "setting": "[4]; 1 mM, day 3", "value": 32, "unit": "SFU/ml"}, {"measurement": "HIV growth, U937 + HSV IE110 + 6-ABP", "setting": "[4]; 1 mM, day 5", "value": 64, "unit": "SFU/ml"}, {"measurement": "HIV growth, U937 + HSV IE110 + 6-ABP", "setting": "[4]; 1 mM, day 6", "value": 100, "unit": "SFU/ml"}, {"measurement": "HIV growth, U937 + HSV IE110 + 6-ABP", "setting": "[4]; 1 mM, day 8", "value": 100, "unit": "SFU/ml"}, {"measurement": "effect on IE-110(HSV)-activated growth of HIV", "setting": "[4]; 3 mM, FIG. 3", "value": "profoundly depresses IE-110(HSV)-activated growth of HIV"}, {"measurement": "HIV growth, U937 + HSV IE-110, reduced to background levels", "setting": "[4]; 3 mM, days 4 to 8, FIG. 3", "value": "250-300 SFU per ml"}]}
